US9701689B2, “Substituted pyridines and pyridazines as CCR10 receptor inhibitors” (KYOWA HAKKO KIRIN CO., LTD., priority 2012, dated 2017)

Target: T1, human CCR10 (Homo sapiens, UniProt P46092)
T1 construct: expressed in transfected cells; host or cells: KJMGER8 cells (Namalwa cell-derived line), beta-estradiol-induced; hCCR10G16 cells
T1 sequence (P46092 1-362): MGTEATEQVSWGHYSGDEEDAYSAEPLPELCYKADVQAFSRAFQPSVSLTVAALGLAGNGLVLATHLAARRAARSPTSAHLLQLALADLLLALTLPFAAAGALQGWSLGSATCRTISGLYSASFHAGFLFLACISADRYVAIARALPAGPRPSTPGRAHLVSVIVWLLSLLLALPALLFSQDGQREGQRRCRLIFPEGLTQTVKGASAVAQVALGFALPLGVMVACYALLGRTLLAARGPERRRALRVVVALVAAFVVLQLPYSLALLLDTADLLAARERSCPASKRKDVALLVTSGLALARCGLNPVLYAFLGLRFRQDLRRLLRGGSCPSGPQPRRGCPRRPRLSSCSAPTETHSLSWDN
Assay: CCR10 antagonistic effect: calcium assay of human CCR10 (CTACK-induced increase of intracellular calcium in hCCR10G16 cells)
Type: cell-based
Conditions: at a concentration of not more than 1000 nmol/L; human CCR10-expressing hCCR10G16 cells, 300 nmol/L CTACK added; read-out: inhibition of increase in the calcium ion concentration
Procedure, shortened: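 KJMGER8-derived hCCR10G16 cells (CCR10 plus Gα16, induced 24 h with 10 nmol/L β-estradiol), Fluo-3 loaded, preincubated with compound 30 min at 37 °C. Stimulated with CTACK (300 nmol/L solution before addition); calcium read ~5 min by FDSS, max−min fluorescence; % inhibition vs control.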

SMILES | inhibition at up to 1 µM [%]
Cc1c(Cl)ccc(Nc2cc(S(N)(=O)=O)ncc2C(=O)N2CCC(c3ccc(F)cc3)CC2)c1C [Compound 66, 4-(4-chloro-2,3-dimethylphenylamino)-5-[4-(4-fluorophenyl)piperidine-1-carbonyl]pyridine-2-sulfonamide] | ≥ 50
COc1ccc(Cl)cc1Nc1cc(S(N)(=O)=O)ncc1C(=O)N1CCC(c2ccc(F)cc2)CC1 [Compound 69, 4-(5-chloro-2-methoxyphenylamino)-5-[4-(4-fluorophenyl)piperidine-1-carbonyl]pyridine-2-sulfonamide] | ≥ 50
NS(=O)(=O)c1cc(Nc2cc(F)c(Cl)cc2Cl)c(C(=O)N2CCC(c3ccc(F)cc3)CC2)cn1 [Compound 71, 4-(2,4-dichloro-5-fluorophenylamino)-5-[4-(4-fluorophenyl)piperidine-1-carbonyl]pyridine-2-sulfonamide] | ≥ 50
NS(=O)(=O)c1cc(Nc2ccc(Cl)c(F)c2Cl)c(C(=O)N2CCC(c3ccc(F)cc3)CC2)cn1 [Compound 75, 4-(2,4-dichloro-3-fluorophenylamino)-5-[4-(4-fluorophenyl)piperidine-1-carbonyl]pyridine-2-sulfonamide] | ≥ 50
COc1ccc(Nc2cc(S(N)(=O)=O)ncc2C(=O)N2CCC(c3ccc(F)cc3)CC2)c(C)c1 [Compound 78, 5-[4-(4-fluorophenyl)piperidine-1-carbonyl]-4-(4-methoxy-2-methylphenylamino)pyridine-2-sulfonamide] | ≥ 50
NS(=O)(=O)c1cc(Nc2ccc(Cl)cc2Cl)c(C(=O)N2CCC(c3ccc(F)cc3)CC2)cn1 [Compound 81, 4-(2,4-dichlorophenylamino)-5-[4-(4-fluorophenyl)piperidine-1-carbonyl]pyridine-2-sulfonamide] | ≥ 50
NS(=O)(=O)c1cc(Nc2ccc(Cl)cc2)c(C(=O)N2CCC(c3ccc(F)cc3)CC2)cn1 [Compound 82, 4-(4-chlorophenylamino)-5-[4-(4-fluorophenyl)piperidine-1-carbonyl]pyridine-2-sulfonamide] | ≥ 50
COc1ccc(Nc2cc(S(N)(=O)=O)ncc2C(=O)N2CCC(c3ccc(F)cc3)CC2)cc1 [Compound 84, 5-[4-(4-fluorophenyl)piperidine-1-carbonyl]-4-(4-methoxyphenylamino)pyridine-2-sulfonamide] | ≥ 50
COc1ccc(Nc2cc(S(N)(=O)=O)ncc2C(=O)N2CCC(c3ccc(F)cc3)CC2)cc1C [Compound 88, 5-[4-(4-fluorophenyl)piperidine-1-carbonyl]-4-(4-methoxy-3-methylphenylamino)pyridine-2-sulfonamide] | ≥ 50
COc1ccc(Nc2cc(S(N)(=O)=O)ncc2C(=O)N2CCC(c3ccc(F)cc3)CC2)cc1C(F)(F)F [Compound 89, 5-[4-(4-fluorophenyl)piperidine-1-carbonyl]-4-[4-methoxy-3-(trifluoromethyl)phenylamino]pyridine-2-sulfonamide] | ≥ 50
NS(=O)(=O)c1cc(Nc2ccc(Br)cc2Cl)c(C(=O)N2CCC(c3ccc(F)cc3)CC2)cn1 [Compound 90, 4-(4-bromo-2-chlorophenylamino)-5-[4-(4-fluorophenyl)piperidine-1-carbonyl]pyridine-2-sulfonamide] | ≥ 50
COc1ccc(Nc2cc(S(N)(=O)=O)ncc2C(=O)N2CCC(c3ccc(F)cc3)CC2)c(Cl)c1 [Compound 92, 4-(2-chloro-4-methoxyphenylamino)-5-[4-(4-fluorophenyl)piperidine-1-carbonyl]pyridine-2-sulfonamide] | ≥ 50
COc1ccc(C)c(Nc2cc(S(N)(=O)=O)ncc2C(=O)N2CCC(c3ccc(F)cc3)CC2)c1 [Compound 93, 5-[4-(4-fluorophenyl)piperidine-1-carbonyl]-4-(5-methoxy-2-methylphenylamino)pyridine-2-sulfonamide] | ≥ 50
NS(=O)(=O)c1cc(Nc2ccc3c(c2)CCO3)c(C(=O)N2CCC(c3ccc(F)cc3)CC2)cn1 [Compound 94, 4-(2,3-dihydrobenzofuran-5-ylamino)-5-[4-(4-fluorophenyl)piperidine-1-carbonyl]pyridine-2-sulfonamide] | ≥ 50
NS(=O)(=O)c1cc(Nc2ccccc2)c(C(=O)N2CCC(c3ccc(F)cc3)CC2)cn1 [Compound 95, 5-[4-(4-fluorophenyl)piperidine-1-carbonyl]-4-(phenylamino)pyridine-2-sulfonamide] | ≥ 50

Now from value to compound:

inhibition at up to 1 µM [%] | SMILES
≥ 50 | Cc1cc(Nc2cc(S(N)(=O)=O)ncc2C(=O)N2CCC(c3ccc(F)cc3)CC2)c(F)cc1Cl [Compound 67, 4-(4-chloro-2-fluoro-5-methylphenylamino)-5-[4-(4-fluorophenyl)piperidine-1-carbonyl]pyridine-2-sulfonamide]
≥ 50 | Cc1ccc(F)c(Nc2cc(S(N)(=O)=O)ncc2C(=O)N2CCC(c3ccc(F)cc3)CC2)c1 [Compound 68, 4-(2-fluoro-5-methylphenylamino)-5-[4-(4-fluorophenyl)piperidine-1-carbonyl]pyridine-2-sulfonamide]
≥ 50 | NS(=O)(=O)c1cc(Nc2cc(F)ccc2Cl)c(C(=O)N2CCC(c3ccc(F)cc3)CC2)cn1 [Compound 70, 4-(2-chloro-5-fluorophenylamino)-5-[4-(4-fluorophenyl)piperidine-1-carbonyl]pyridine-2-sulfonamide]
≥ 50 | Cc1cccc(F)c1Nc1cc(S(N)(=O)=O)ncc1C(=O)N1CCC(c2ccc(F)cc2)CC1 [Compound 72, 4-(2-fluoro-6-methylphenylamino)-5-[4-(4-fluorophenyl)piperidine-1-carbonyl]pyridine-2-sulfonamide]
≥ 50 | NS(=O)(=O)c1cc(Nc2c(F)cccc2F)c(C(=O)N2CCC(c3ccc(F)cc3)CC2)cn1 [Compound 73, 4-(2,6-difluorophenylamino)-5-[4-(4-fluorophenyl)piperidine-1-carbonyl]pyridine-2-sulfonamide]
≥ 50 | NS(=O)(=O)c1cc(Nc2cccc(F)c2Cl)c(C(=O)N2CCC(c3ccc(F)cc3)CC2)cn1 [Compound 74, 4-(2-chloro-3-fluorophenylamino)-5-[4-(4-fluorophenyl)piperidine-1-carbonyl]pyridine-2-sulfonamide]
≥ 50 | Cc1cccc(Nc2cc(S(N)(=O)=O)ncc2C(=O)N2CCC(c3ccc(F)cc3)CC2)c1F [Compound 76, 4-(2-fluoro-3-methylphenylamino)-5-[4-(4-fluorophenyl)piperidine-1-carbonyl]pyridine-2-sulfonamide]
≥ 50 | Cc1c(Cl)ccc(Nc2cc(S(N)(=O)=O)ncc2C(=O)N2CCC(c3ccc(F)cc3)CC2)c1F [Compound 77, 4-(4-chloro-2-fluoro-3-methylphenylamino)-5-[4-(4-fluorophenyl)piperidine-1-carbonyl]pyridine-2-sulfonamide]
≥ 50 | Cc1ccc(Nc2cc(S(N)(=O)=O)ncc2C(=O)N2CCC(c3ccc(F)cc3)CC2)cc1Cl [Compound 79, 4-(3-chloro-4-methylphenylamino)-5-[4-(4-fluorophenyl)piperidine-1-carbonyl]pyridine-2-sulfonamide]
≥ 50 | NS(=O)(=O)c1cc(Nc2ccc(Cl)cc2F)c(C(=O)N2CCC(c3ccc(F)cc3)CC2)cn1 [Compound 80, 4-(4-chloro-2-fluorophenylamino)-5-[4-(4-fluorophenyl)piperidine-1-carbonyl]pyridine-2-sulfonamide]
≥ 50 | Cc1cc(Nc2cc(S(N)(=O)=O)ncc2C(=O)N2CCC(c3ccc(F)cc3)CC2)ccc1F [Compound 83, 4-(4-fluoro-3-methylphenylamino)-5-[4-(4-fluorophenyl)piperidine-1-carbonyl]pyridine-2-sulfonamide]
≥ 50 | COc1ccc(Nc2cc(S(N)(=O)=O)ncc2C(=O)N2CCC(c3ccc(F)cc3)CC2)cc1F [Compound 86, 4-(3-fluoro-4-methoxyphenylamino)-5-[4-(4-fluorophenyl)piperidine-1-carbonyl]pyridine-2-sulfonamide]
≥ 50 | COc1ccc(Nc2cc(S(N)(=O)=O)ncc2C(=O)N2CCC(c3ccc(F)cc3)CC2)c(F)c1 [Compound 87, 4-(2-fluoro-4-methoxyphenylamino)-5-[4-(4-fluorophenyl)piperidine-1-carbonyl]pyridine-2-sulfonamide]
≥ 50 | NS(=O)(=O)c1cc(Nc2ccc(Br)cc2F)c(C(=O)N2CCC(c3ccc(F)cc3)CC2)cn1 [Compound 91, 4-(4-bromo-2-fluorophenylamino)-5-[4-(4-fluorophenyl)piperidine-1-carbonyl]pyridine-2-sulfonamide]
≥ 50 | Cc1cccc(Nc2cc(S(N)(=O)=O)ncc2C(=O)N2CCC(c3ccc(F)cc3)CC2)c1 [Compound 96, 5-[4-(4-fluorophenyl)piperidine-1-carbonyl]-4-(m-tolylamino)pyridine-2-sulfonamide]
≥ 50 | Cc1ccc(Nc2cc(S(N)(=O)=O)ncc2C(=O)N2CCC(c3ccc(F)cc3)CC2)cc1 [Compound 98, 5-[4-(4-fluorophenyl)piperidine-1-carbonyl]-4-(p-tolylamino)pyridine-2-sulfonamide]
